Reference: the kinase profiling compilation of Christmann-Franck et al. (2016)

Experiments:
Assay in all cases: KINOMEscan competition binding
Details in all cases: compound 10.0 µM
[1] = target: MAP3K5 (human) (UniProt Q99683)
[2] = target: FGFR3 (human) (UniProt P22607)
[3] = target: MARK3 (human) (UniProt P27448)
[4] = target: MAPK14 (human) (UniProt Q16539)
[5] = target: CSNK1G3 (human) (UniProt Q9Y6M4)
[6] = system: ABL1 (human), P00519 [H396P]
[7] = target: TNK2 (human) (UniProt Q07912)
[8] = target: RPS6KA1 KD2 (human) (UniProt Q15418)
[9] = target: MAPK9 (human) (UniProt P45984)
[10] = target: MAPK13 (human) (UniProt O15264)
[11] = target: CSNK2A1 (human) (UniProt P68400)
[12] = target: PIP5K1A (human) (UniProt Q99755)
[13] = target: MST1R (human) (UniProt Q04912)
[14] = target: PIK3C2B (human) (UniProt O00750)
[15] = target: PIM2 (human) (UniProt Q9P1W9)
[16] = target: ABL1 (human) (UniProt P00519)
[17] = target: MAP3K9 (human) (UniProt P80192)
[18] = target: LIMK1 (human) (UniProt P53667)
[19] = target: CSNK1A1L (human) (UniProt Q8N752)
[20] = target: RET (human) (UniProt P07949)
[21] = target: KIT (human) (UniProt P10721)
[22] = target: EIF2AK2 (human) (UniProt P19525)
[23] = target: PRKCH (human) (UniProt P24723)
[24] = target: SRC (human) (UniProt P12931)
[25] = target: INSR (human) (UniProt P06213)
[26] = target: MAP3K12 (human) (UniProt Q12852)
[27] = target: ERBB3 (human) (UniProt P21860)
[28] = system: MET (human), P08581 [Y1235D]
[29] = target: PIK3C2G (human) (UniProt O75747)
[30] = target: TBK1 (human) (UniProt Q9UHD2)
[31] = target: NEK4 (human) (UniProt P51957)
[32] = target: MAP3K13 (human) (UniProt O43283)
[33] = target: MAP3K2 (human) (UniProt Q9Y2U5)
[34] = target: TRPM6 (human) (UniProt Q9BX84)
[35] = system: EGFR (human), P00533 [T790M]

Chain of INSR (human) (P06213 whole entry, looked up): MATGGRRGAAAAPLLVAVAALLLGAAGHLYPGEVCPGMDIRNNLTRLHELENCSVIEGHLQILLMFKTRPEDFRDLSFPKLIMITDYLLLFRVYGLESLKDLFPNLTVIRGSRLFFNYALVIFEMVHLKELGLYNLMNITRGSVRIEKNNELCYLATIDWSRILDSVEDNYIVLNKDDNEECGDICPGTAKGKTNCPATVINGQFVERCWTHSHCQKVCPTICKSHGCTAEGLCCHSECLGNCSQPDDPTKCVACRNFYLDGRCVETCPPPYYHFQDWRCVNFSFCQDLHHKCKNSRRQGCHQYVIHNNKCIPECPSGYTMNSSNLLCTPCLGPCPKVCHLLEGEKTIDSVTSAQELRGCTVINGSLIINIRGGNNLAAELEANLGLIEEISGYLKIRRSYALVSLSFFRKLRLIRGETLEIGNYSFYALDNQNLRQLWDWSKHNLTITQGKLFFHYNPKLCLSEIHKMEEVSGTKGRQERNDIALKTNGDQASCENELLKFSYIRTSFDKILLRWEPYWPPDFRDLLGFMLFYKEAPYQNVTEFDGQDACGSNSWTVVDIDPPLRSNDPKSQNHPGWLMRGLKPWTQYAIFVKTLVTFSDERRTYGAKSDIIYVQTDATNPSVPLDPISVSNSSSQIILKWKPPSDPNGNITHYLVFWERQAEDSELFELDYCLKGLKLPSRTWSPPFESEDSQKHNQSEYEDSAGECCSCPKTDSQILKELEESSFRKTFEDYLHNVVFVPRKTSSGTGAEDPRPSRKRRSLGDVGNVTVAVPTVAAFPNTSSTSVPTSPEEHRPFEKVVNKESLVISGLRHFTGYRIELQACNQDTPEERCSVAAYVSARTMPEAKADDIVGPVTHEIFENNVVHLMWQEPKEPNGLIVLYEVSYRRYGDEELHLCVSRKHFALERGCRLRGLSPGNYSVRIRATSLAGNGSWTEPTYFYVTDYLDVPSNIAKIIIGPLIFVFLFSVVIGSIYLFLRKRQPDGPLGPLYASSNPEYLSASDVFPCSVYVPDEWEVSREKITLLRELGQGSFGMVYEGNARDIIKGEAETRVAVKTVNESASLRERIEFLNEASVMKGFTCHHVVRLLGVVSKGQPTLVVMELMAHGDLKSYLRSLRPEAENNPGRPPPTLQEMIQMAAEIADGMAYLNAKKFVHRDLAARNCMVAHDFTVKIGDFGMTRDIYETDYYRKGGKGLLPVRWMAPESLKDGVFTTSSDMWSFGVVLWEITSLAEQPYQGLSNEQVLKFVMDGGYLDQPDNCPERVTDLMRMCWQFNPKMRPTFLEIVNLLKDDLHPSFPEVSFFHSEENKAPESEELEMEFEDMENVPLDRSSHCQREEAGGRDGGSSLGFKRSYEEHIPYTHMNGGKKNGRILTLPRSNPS
Chain of MAPK14 (human) (Q16539 whole entry, looked up): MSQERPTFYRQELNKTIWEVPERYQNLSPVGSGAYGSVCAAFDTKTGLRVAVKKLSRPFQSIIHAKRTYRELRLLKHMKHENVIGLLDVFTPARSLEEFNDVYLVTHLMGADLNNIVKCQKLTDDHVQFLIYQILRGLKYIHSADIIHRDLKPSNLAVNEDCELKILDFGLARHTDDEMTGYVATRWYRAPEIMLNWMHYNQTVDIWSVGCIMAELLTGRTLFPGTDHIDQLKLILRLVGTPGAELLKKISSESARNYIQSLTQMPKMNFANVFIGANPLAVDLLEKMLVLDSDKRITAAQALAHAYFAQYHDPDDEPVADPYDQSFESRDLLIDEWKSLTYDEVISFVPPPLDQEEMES
Chain of PRKCH (human) (P24723 whole entry, looked up): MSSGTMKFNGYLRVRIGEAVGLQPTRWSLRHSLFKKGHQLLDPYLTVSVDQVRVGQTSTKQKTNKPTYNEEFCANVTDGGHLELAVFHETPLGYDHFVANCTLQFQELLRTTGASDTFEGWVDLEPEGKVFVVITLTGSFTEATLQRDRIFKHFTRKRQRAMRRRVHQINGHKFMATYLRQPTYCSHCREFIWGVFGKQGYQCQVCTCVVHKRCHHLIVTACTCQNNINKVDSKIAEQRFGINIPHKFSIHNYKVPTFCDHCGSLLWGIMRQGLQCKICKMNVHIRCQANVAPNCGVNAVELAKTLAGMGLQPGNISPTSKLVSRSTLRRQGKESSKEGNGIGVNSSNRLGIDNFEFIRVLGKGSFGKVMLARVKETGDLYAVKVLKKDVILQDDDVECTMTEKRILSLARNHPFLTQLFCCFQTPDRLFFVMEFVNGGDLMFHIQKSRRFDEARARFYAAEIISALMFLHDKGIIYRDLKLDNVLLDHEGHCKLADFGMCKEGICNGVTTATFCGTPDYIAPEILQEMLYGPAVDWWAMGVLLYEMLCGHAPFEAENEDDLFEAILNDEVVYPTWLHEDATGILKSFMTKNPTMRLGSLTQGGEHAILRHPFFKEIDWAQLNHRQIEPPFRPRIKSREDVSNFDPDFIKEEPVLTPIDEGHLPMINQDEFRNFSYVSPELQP
Chain of CSNK1A1L (human) (Q8N752 whole entry, looked up): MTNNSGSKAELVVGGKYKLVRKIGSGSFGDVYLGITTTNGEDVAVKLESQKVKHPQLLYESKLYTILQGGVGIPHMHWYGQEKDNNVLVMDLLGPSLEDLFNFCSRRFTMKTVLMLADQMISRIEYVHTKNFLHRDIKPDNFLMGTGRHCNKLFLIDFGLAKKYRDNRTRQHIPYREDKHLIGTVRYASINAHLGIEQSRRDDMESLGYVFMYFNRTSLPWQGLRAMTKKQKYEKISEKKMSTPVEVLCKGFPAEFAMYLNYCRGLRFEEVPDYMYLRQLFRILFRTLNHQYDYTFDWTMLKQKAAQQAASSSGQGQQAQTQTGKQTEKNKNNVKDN
Chain of TNK2 (human) (Q07912 whole entry, looked up): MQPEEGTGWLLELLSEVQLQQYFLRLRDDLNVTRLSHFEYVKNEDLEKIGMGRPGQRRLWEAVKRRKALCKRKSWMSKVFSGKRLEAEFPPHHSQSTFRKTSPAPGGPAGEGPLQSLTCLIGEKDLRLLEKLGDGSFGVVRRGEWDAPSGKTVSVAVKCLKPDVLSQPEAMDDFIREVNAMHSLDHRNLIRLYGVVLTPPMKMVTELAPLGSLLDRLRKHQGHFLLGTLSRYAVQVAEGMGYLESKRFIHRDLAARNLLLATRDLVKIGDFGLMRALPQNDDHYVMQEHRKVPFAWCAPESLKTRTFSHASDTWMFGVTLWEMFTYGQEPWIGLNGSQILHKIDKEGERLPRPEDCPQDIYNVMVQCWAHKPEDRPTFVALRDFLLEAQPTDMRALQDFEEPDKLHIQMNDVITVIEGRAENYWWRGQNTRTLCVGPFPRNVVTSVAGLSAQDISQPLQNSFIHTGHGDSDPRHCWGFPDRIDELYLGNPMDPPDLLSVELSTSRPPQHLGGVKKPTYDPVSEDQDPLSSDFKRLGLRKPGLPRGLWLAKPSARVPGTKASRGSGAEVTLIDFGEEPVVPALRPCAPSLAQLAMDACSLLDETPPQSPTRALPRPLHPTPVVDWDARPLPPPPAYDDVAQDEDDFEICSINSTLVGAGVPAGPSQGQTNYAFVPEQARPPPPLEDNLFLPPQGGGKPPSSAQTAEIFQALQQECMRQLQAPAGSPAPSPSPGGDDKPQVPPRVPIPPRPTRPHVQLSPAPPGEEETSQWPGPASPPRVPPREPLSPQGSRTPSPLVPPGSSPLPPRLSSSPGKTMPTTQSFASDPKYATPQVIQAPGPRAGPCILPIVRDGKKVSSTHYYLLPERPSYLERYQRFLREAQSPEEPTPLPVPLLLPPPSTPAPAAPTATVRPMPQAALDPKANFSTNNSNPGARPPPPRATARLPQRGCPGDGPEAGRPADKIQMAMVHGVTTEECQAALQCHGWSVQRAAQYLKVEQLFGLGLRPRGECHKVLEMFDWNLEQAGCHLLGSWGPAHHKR
Chain of PIM2 (human) (Q9P1W9 whole entry, looked up): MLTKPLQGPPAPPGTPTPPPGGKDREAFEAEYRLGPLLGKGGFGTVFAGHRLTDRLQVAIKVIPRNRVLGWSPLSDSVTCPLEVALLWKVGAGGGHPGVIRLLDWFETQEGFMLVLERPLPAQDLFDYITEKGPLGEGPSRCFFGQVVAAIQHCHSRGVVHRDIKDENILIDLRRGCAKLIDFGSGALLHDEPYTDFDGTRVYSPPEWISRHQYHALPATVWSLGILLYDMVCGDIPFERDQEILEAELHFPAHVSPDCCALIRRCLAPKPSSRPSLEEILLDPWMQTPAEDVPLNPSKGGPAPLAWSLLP
Chain of MARK3 (human) (P27448 whole entry, looked up): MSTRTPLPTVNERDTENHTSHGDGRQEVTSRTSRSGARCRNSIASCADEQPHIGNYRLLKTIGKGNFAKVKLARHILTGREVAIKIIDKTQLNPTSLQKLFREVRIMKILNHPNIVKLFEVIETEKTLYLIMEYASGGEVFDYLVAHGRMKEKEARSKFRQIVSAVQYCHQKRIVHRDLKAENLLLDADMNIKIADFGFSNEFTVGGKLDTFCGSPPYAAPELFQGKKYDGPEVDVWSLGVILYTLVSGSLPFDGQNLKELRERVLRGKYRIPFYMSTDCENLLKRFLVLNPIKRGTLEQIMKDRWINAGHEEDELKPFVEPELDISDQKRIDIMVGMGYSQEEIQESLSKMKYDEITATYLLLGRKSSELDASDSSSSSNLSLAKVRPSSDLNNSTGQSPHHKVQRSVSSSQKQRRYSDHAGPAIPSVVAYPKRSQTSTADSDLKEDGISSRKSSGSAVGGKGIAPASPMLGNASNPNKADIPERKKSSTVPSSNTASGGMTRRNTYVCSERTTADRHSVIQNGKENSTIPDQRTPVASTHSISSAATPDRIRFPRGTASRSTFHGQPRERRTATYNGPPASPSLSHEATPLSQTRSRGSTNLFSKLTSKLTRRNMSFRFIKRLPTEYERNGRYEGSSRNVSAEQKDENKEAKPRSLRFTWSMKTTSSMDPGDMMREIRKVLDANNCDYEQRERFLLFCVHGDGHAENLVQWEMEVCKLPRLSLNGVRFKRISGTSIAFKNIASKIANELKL

| SMILES | kinase still bound, per cent of control [1] [%] | kinase still bound, per cent of control [2] [%] | kinase still bound, per cent of control [3] [%] | kinase still bound, per cent of control [4] [%] | kinase still bound, per cent of control [5] [%] | kinase still bound, per cent of control [7] [%] | kinase still bound, per cent of control [8] [%] | kinase still bound, per cent of control [9] [%] | kinase still bound, per cent of control [11] [%] | kinase still bound, per cent of control [12] [%] | kinase still bound, per cent of control [15] [%] | kinase still bound, per cent of control [17] [%] | kinase still bound, per cent of control [18] [%] | kinase still bound, per cent of control [19] [%] | kinase still bound, per cent of control [20] [%] | kinase still bound, per cent of control [21] [%] | kinase still bound, per cent of control [22] [%] | kinase still bound, per cent of control [23] [%] | kinase still bound, per cent of control [24] [%] | kinase still bound, per cent of control [26] [%] | also measured |
| --- | --- | --- | --- | --- | --- | --- | --- | --- | --- | --- | --- | --- | --- | --- | --- | --- | --- | --- | --- | --- | --- |
| Cc1n[nH]c2ccc(-c3cncc(OC[C@@H](N)Cc4c[nH]c5ccccc45)c3)cc12 | 100 | 100 | 9.4 | 100 | 0.15 | 100 | 100 | 100 | 17 | 9.4 | 1.2 | 100 | 100 | 11 | 100 | 100 | 100 | 1.4 | 100 | 100 | kinase still bound, per cent of control [6]: 100%; kinase still bound, per cent of control [10]: 4.4%; kinase still bound, per cent of control [13]: 100%; kinase still bound, per cent of control [14]: 100%; kinase still bound, per cent of control [16]: 100%; kinase still bound, per cent of control [25]: 100% |
| CCN(CC)CCCCNc1ncc2cc(-c3cc(OC)cc(OC)c3)c(NC(=O)NC(C)(C)C)nc2n1 | 100 | 0.05 | 100 | 100 | 100 | 100 | 100 | 100 | 100 | 100 | 100 | 100 | 100 | 100 | 26 | 100 | 24 | 100 | 100 | 100 | kinase still bound, per cent of control [6]: 100%; kinase still bound, per cent of control [16]: 100% |
| CNC(=O)c1ccc(Nc2cc(Nc3ccccc3S(=O)(=O)C(C)C)c3cc[nH]c3n2)nc1 | 100 | 18 | 13 | 100 | 22 | 1 | 100 | 100 | 4.4 | 4.6 | 100 | 0.85 | 100 | 26 | 3.8 | 20 | 100 | 100 | 0.25 | 0.4 | kinase still bound, per cent of control [6]: 10%; kinase still bound, per cent of control [10]: 100%; kinase still bound, per cent of control [13]: 100%; kinase still bound, per cent of control [14]: 100%; kinase still bound, per cent of control [16]: 11%; kinase still bound, per cent of control [25]: 0.4% |
| COc1cc(C(=O)N2CCC(N3CCN(C)CC3)CC2)ccc1Nc1ncc2c(n1)N(C)c1ccccc1C(=O)N2C | 100 | 80 | 98 | 87 | 93 | 18 | 10 | 94 | 100 | 90 | 100 | 93 | 95 | 100 | 100 | 100 | 84 | 100 | 100 | 81 | kinase still bound, per cent of control [27]: 100%; kinase still bound, per cent of control [28]: 100%; kinase still bound, per cent of control [29]: 100%; kinase still bound, per cent of control [30]: 97%; kinase still bound, per cent of control [31]: 95%; kinase still bound, per cent of control [10]: 72%; kinase still bound, per cent of control [32]: 100%; kinase still bound, per cent of control [33]: 97%; kinase still bound, per cent of control [13]: 98%; kinase still bound, per cent of control [14]: 100%; kinase still bound, per cent of control [34]: 100%; kinase still bound, per cent of control [35]: 88%; kinase still bound, per cent of control [25]: 84% |
| COc1ccc(N(C(=O)Oc2c(C)cccc2C)c2ccnc(Nc3ccc(N4CCN(C)CC4)cc3)n2)c(OC)c1 | 100 | 1 | 4.8 | 52 | 87 | 0 | 65 | 2.6 | 66 | 0.45 | 100 | 0.6 | 0 | 100 | 0.1 | 0.45 | 92 | 35 | 0.05 | 73 | kinase still bound, per cent of control [27]: 0%; kinase still bound, per cent of control [28]: 1.6%; kinase still bound, per cent of control [29]: 98%; kinase still bound, per cent of control [30]: 74%; kinase still bound, per cent of control [31]: 74%; kinase still bound, per cent of control [10]: 100%; kinase still bound, per cent of control [32]: 70%; kinase still bound, per cent of control [33]: 2.2%; kinase still bound, per cent of control [13]: 16%; kinase still bound, per cent of control [14]: 11%; kinase still bound, per cent of control [34]: 100%; kinase still bound, per cent of control [35]: 2.2%; kinase still bound, per cent of control [25]: 100% |
